Publication PMC6136712, “Ex vivo drug sensitivity testing as a means for drug repurposing in esophageal adenocarcinoma” (PLoS ONE, 2018)
Where a SMILES comes first, the peptide text is derived from it. [ ]: non-standard residue; d: D form. ξ: configuration not given here. Aoe(9ξ) = N[C@@H](CCCCCC(=O)C1CO1)C(=O)O; dPip = O=C(O)[C@H]1CCCCN1

Key:
Format in all cases: cell-based, human
[1] = test system: normal esophageal epithelium cell line EACN42; assay: FDA library drug sensitivity testing (CellTiter-Glo, 72 h), normal control cells; set-up: key to DSS: modified drug sensitivity score (DSSmod) from dose-response curve fit; conditions: 72 h, EACN42 normal esophageal cells; for EC50: Homo sapiens, cell viability (ATP), max test concentration 10μM; for DSS: drug sensitivity score
Procedure, shortened: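 HPV E6-E7-immortalized normal human esophageal epithelial cells, 1000 per well, exposed 72 h at 37 °C to drugs in duplicate from 10μM top concentration across a 20,000-fold range. Viability by ATP bioluminescence; DMSO wells as negative control; curves scored with modified drug sensitivity score (DSSmod).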

EAC42 cells = assay: FDA library drug sensitivity testing (CellTiter-Glo, 72 h); conditions: EAC42; sDSSmod = DSSmod (patient cells) - DSSmod (normal cells)
Source text: (§1) OE33, OE19 and SKGT2 human esophageal adenocarcinoma cell lines were obtained from the European Collection of Cell Culture ([…]). Flo1, EAC42 and EAC47 cells were established in the Capobianco Laboratory. EAC42 and EAC47 human esophageal adenocarcinoma cell lines are derived from patients undergoing surgery at the Miller School of Medicine, University of Miami. The Capobianco laboratory obtained written informed consent from all patients and approval from the Institutional Research Ethics Committee.
(§2) Drug sensitivity testing (DST) was performed as described previously. […] Individual drugs were dissolved in 100% DMSO and tested in duplicates starting at a maximal test concentration of 10μM then over a 20,000-fold concentration range to generate dose response curves. Wells with assay buffer containing DMSO served as negative controls. 1000 exponentially growing cells were seeded per well in 384-well micro-titer plates and incubated in the presence of compounds in a humidified environment at 37°C and 5% CO2. After 72 hours of treatment, cell viability was assessed by measuring ATP levels via bioluminescence (CellTiter-Glo, Promega) according to manufactures recommendations. Interpretation of curve parameters was performed according to the modified drug sensitivity scoring (DSSmod) function developed by Swords et al. […] Given in this way, the sDSSmod incorporated information on each drug’s potency, efficacy, effect range and therapeutic index, making it possible to prioritize compounds over multiple parameters using a single numerical metric. […] All calculations and scoring routines are implemented in MatLab and additional curve fitting and statistical analyses are performed in GraphPad prism.

EAC47 cells [2] = assay: as above; conditions: EAC47; sDSSmod = DSSmod (patient cells) - DSSmod (normal cells)
Source text: as §1, §2

OE19 cells = assay: as above; conditions: sDSSmod = DSSmod (patient cells) - DSSmod (normal cells)
Source text: as §1, §2

OE33 cells [3] = assay: as above; conditions: OE33; sDSSmod = DSSmod (patient cells) - DSSmod (normal cells)
Source text: as §1, §2

SK-GT2 cells = assay: as above; conditions: SK-GT2; sDSSmod = DSSmod (patient cells) - DSSmod (normal cells)
Source text: as §1, §2

Flo-1 cells [4] = assay: as above; conditions: Flo-1; sDSSmod = DSSmod (patient cells) - DSSmod (normal cells)
Source text: as §1
Drug sensitivity testing (DST) was performed as described previously. […] Individual drugs were dissolved in 100% DMSO and tested in duplicates starting at a maximal test concentration of 10μM then over a 20,000-fold concentration range to generate dose response curves. Wells with assay buffer containing DMSO served as negative controls. 1000 exponentially growing cells were seeded per well in 384-well micro-titer plates and incubated in the presence of compounds in a humidified environment at 37°C and 5% CO2. After 72 hours of treatment, cell viability was assessed by measuring ATP levels via bioluminescence (CellTiter-Glo, Promega) according to manufactures recommendations. Interpretation of curve parameters was performed according to the modified drug sensitivity scoring (DSSmod) function developed by Swords et al. As a final step, the selective DSSmod (sDSSmod) for each drug in each patient screen is calculated according to the formula sDSSmod = DSSmod (patient cells)—DSSmod (normal cells). Given in this way, the sDSSmod incorporated information on each drug’s potency, efficacy, effect range and therapeutic index, making it possible to prioritize compounds over multiple parameters using a single numerical metric. In addition, this methodology allows us to rank compounds by cancer-selective efficacy for each individual patient. […] All calculations and scoring routines are implemented in MatLab and additional curve fitting and statistical analyses are performed in GraphPad prism.

Flo-1 cells [5] = assay: Epigenetic compound library screen (CellTiter-Glo, 72 h); conditions: Flo-1, 6μM; for cytotoxicity at 6 µM: Homo sapiens, read-out: % cell killing /control
Protocol: (§3) We tested a 163 compound epigenetic library that consists of inhibitors and activators of epigenetic modifying enzymes (writers, erasers and readers). All compounds were dissolved in 100% DMSO and tested in duplicate at a nominal test concentration of 6μM. Wells with assay buffer containing DMSO served as negative controls. 1000 exponentially growing cells were seeded per well in 384-well micro-titer plates and incubated in the presence of compounds in a humidified environment at 37°C and 5% CO2. After 72 hours of treatment, cell viability was assessed by measuring ATP levels via bioluminescence (CellTiter-Glo, Promega). […] Curve fitting and statistical analyses are performed in GraphPad prism.

EAC47 cells [6] = assay: as above; conditions: EAC47, 6μM, 72 h; for cytotoxicity at 6 µM: Homo sapiens, read-out: % cell killing /control
Protocol: as §3

OE33 cells [7] = assay: as above; conditions: OE33, 6μM; for cytotoxicity at 6 µM: Homo sapiens, read-out: % cell killing /control
Protocol: as §3

`CO[C@H]1C[C@@H]2CC[C@@H](C)[C@@](O)(O2)C(=O)C(=O)N2CCCC[C@H]2C(=O)O[C@H]([C@H](C)C[C@@H]2CC[C@@H](OC(=O)C(C)(CO)CO)[C@H](OC)C2)CC(=O)[C@H](C)/C=C(\C)[C@@H](O)[C@@H](OC)C(=O)[C@H](C)C[C@H](C)/C=C/C=C/C=C/1C` [Temsirolimus] was tested, and the EC50 [1] was greater than 10 µM, the DSS [1] was 11.93 and the sDSSmod (EAC42 cells) was -5.1083. The sDSSmod (EAC47 cells [2]) was -9.994, the sDSSmod (OE19 cells) was -11.9329 and the sDSSmod (OE33 cells [3]) was -11.9329. It also gave a sDSSmod (SK-GT2 cells) of -11.9329 and a sDSSmod (Flo-1 cells [4]) of -11.93.
In the case of `O=C(CCCCCN1C(=O)c2cccc3cccc(c23)C1=O)NO` [Scriptaid], the cytotoxicity at 6 µM (Flo-1 cells [5]) is reported as 32.5%.
`CC1(C)CCC2=C(O1)c1ccccc1C(=O)C2=O` [β-Lapachone] showed a cytotoxicity at 6 µM (Flo-1 cells [5]) of 40.9%.
`Cn1cc(CNCC2CCN(c3ncc(C(=O)NO)cn3)CC2)c2ccccc21` [JNJ-26481585] was tested, and the “% cell killing /control” value (EAC47 cells [6]) was 113.73%, the “% cell killing /control” value (Flo-1 cells [5]) was 98.39% and the “% cell killing /control” value (OE33 cells [7]) was 99.54%.
For `O=C(/C=C/c1ccc(CN(CCO)CCc2c[nH]c3ccccc23)cc1)NO` [LAQ824], the cytotoxicity at 6 µM (EAC47 cells [6]) was 108%, the cytotoxicity at 6 µM (Flo-1 cells [5]) was 96.8% and the cytotoxicity at 6 µM (OE33 cells [7]) was 99%.
In the case of `O=Nc1ccc(O)c2ncccc12` [NSC-3852], the “% cell killing /control” value (OE33 cells [7]) is reported as 42.71%.
For `Nc1ccccc1NC(=O)c1ccc(CNC(=O)OCc2cccnc2)cc1` [Entinostat (MS-275), Entinostat], the cytotoxicity at 6 µM (EAC47 cells [6]) was 36.6%, the cytotoxicity at 6 µM (Flo-1 cells [5]) was 43.3% and the cytotoxicity at 6 µM (OE33 cells [7]) was 76%.
`CCCCc1nc2cc(/C=C/C(=O)NO)ccc2n1CCN(CC)CC` [SB 939] gave a cytotoxicity at 6 µM (Flo-1 cells [5]) of 78.8% and a cytotoxicity at 6 µM (OE33 cells [7]) of 98.9%.
`O=C(CCCCC[C@@H]1NC(=O)[C@H]2CCCCN2C(=O)[C@H](Cc2ccccc2)NC(=O)[C@H](Cc2ccccc2)NC1=O)C1CO1` (some centres unmarked) [Trapoxin A] (cyclo(FF[dPip][Aoe(9ξ)])) was tested, and the cytotoxicity at 6 µM (EAC47 cells [6]) was 102%, the cytotoxicity at 6 µM (Flo-1 cells [5]) was 96.4% and the cytotoxicity at 6 µM (OE33 cells [7]) was 98.9%.
`Nc1ncnc2c1c(I)cn2[C@@H]1O[C@H](CO)[C@@H](O)[C@H]1O` [5-Iodotubercidin] was tested, and the “% cell killing /control” value (Flo-1 cells [5]) was 50.40%.
`Cc1nc(Nc2ncc(C(=O)Nc3c(C)cccc3Cl)s2)cc(N2CCN(CCO)CC2)n1` [Dasatinib] showed an EC50 [1] of 0.08 µM, a DSS [1] of 12.81 and a sDSSmod (EAC42 cells) of -9.752. For the same compound, the sDSSmod (EAC47 cells [2]) was -10.2728, the sDSSmod (OE19 cells) was -12.8072 and the sDSSmod (OE33 cells [3]) was -12.8072. The sDSSmod (SK-GT2 cells) was -12.8072 and the sDSSmod (Flo-1 cells [4]) was -12.8.
In the case of `CC(/C=C/C(=O)NO)=C\[C@@H](C)C(=O)c1ccc(N(C)C)cc1` [Trichostatin A], the “% cell killing /control” value (EAC47 cells [6]) is reported as 109.49%, the “% cell killing /control” value (Flo-1 cells [5]) is reported as 96.32% and the “% cell killing /control” value (OE33 cells [7]) is reported as 98.02%.
`O=C(/C=C/c1cccc(S(=O)(=O)Nc2ccccc2)c1)NO` [PXD101] showed a cytotoxicity at 6 µM (Flo-1 cells [5]) of 77.6% and a cytotoxicity at 6 µM (OE33 cells [7]) of 92.3%.
For `O=C(/C=C/c1cccc(C(=O)NO)c1)NO` [CBHA], the “% cell killing /control” value (EAC47 cells [6]) was 20.30%.
`CCN(CC)C(=S)SSC(=S)N(CC)CC` [Disulfiram] showed a DSS [1] of 0, a sDSSmod (EAC42 cells) of 7.112 and a sDSSmod (SK-GT2 cells) of 10.36. It also gave a cytotoxicity at 6 µM (EAC47 cells [6]) of 33.9%.
